Data as given in patent US8044057B2, “Methods for suppressing an immune response or treating a proliferative disorder” (The United States of America as represented by the …, priority 2003, dated 2011).

What was measured:
[1] = test system: mTOR; test: Western blot of phospho-mTOR S2481 (autophosphorylation) in A549 cells; assay type: cell-based, human; conditions: 0-100 μM LY303511, LPS/IFN-γ
Method: Cells were reacted with 0-100 μM LY303511 for 1 hour before addition of L/I for 30 min and preparation of cell lysates. Samples (70 μg) of proteins were separated by SDS-PAGE and transferred to nitrocellulose membranes before immunodetection of phospho-p70 S6 kinase T389 (pS6K), phospho-Akt S473 (pAkt), total p70 S6 kinase (S6K), total Akt (Akt), phospho-mTOR S2481 (pmTOR), or total mTOR (mTOR) by Western blot. Positions of protein standards (kDa) are on the right. For the bar graph and digital images shown in FIG. 1D, band density measurements were also represented graphically. Integrated band densities for pmTOR were normalized to those of total mTOR. […]
A549 cells were treated without or with 100 mcM LY303511, 200 ng/ml rapamycin, or 50 nM wortmannin in serum free media for 1 hour before addition of E. coli lipopolysaccharide (LPS), 1000 mcglml and interferon (IFN)-γ, 100 U/ml (LPS/IFN-γ or “L/I”). Cells were homogenized and the indicated proteins (see Table 1) were detected by Western blot. […]
Measurement of protein phosphorylation: A549 cells were incubated in serum-free medium without or with inhibitors for 1 hour, as indicated, before incubation for 30 minutes with a mixture of LPS, 100 μg/ml (Sigma; St. Louis, Mo.) and IFN-γ, 100 U/ml (Roche; Nutley, N.J.). […] Integrated band densities were quantified using Scion Image beta 3b software.

[2] = test system: A549 cells; test: KI-67 immunostaining in A549 cells; assay type: cell-based, human; conditions: 24 hours
Source text: Slides were mounted in solution containing DAPI to stain nuclei. Photos were captured using equal laser intensity and gain.

[3] = test system: PC-3 cells; test: PC-3 prostate adenocarcinoma tumor growth in nude mice; assay type: in vivo, mouse
Method: FIG. 6A-6B are bar graphs showing that LY303511 inhibits the growth of prostate adenocarcinoma cells (PC-3) cells in nude mice. LY303511, 10 mg/kg/d was administered intraperitoneally to attenuate PC-3 tumor growth in nude mice. The degree of growth inhibition was proportional to the duration of treatment with LY303511. […] FIG. 6C is a graph of a Kaplan-Mieir survival analysis. The analysis includes the premise that an event happens when a tumor reaches 300 mm^3. The y-axis depicts the probability that tumor size is less than 300 mm^3.
The effect of LY303511 on tumor growth was assessed in vivo. Human prostate adenocarcinoma cells (PC-3 cells, ATCC No. CTL-1435) were culture in vitro 5 before harvesting and implantation. For each mouse, 1×10^6 cells in 20% Matrigel™ (matrix) were implanted by subcutaneous injection into the flank. Mice were subdivided into six groups of ten mice each. Treatment protocols were begun (Day 1) when tumors reached approximately 150 mm^3, and tumor volumes (=Caliper length×width^2/2) were measured for thirty days at the indicated time points. Data were expressed as the average tumor volume +/− SEM for each treatment group and time point. The data is shown both in FIG. 6A and 6B. (*p<0.05 by one way ANOVA for inter-group comparisons at each time point. FIG. 6C is a Kaplan-meier analysis, representing the probability that tumor volumes are less than 300 mm^3 at any given time point (p<0.001 by log-rank test for inter-group comparison).

[4] = test system: P70 S6 kinase; test: Western blot of phospho-p70 S6 kinase T389 in A549 cells; assay type: cell-based, human
Method: A549 cells were treated without or with 100 mcM LY303511, 200 ng/ml rapamycin, or 50 nM wortmannin in serum free media for 1 hour before addition of E. coli lipopolysaccharide (LPS), […] and interferon (IFN)-γ, 100 U/ml (LPS/IFN-γ or “L/I”). Cells were homogenized and the indicated proteins (see Table 1) were detected by Western blot. Western blots are from the same experiment, and representative of three experiments.
In another experiment, A549 cells were grown to sub-confluence in serum-containing media, and incubated with a vehicle, 100 mcM LY303511, or rapamycin, 200 ng/ml for 0, 12, or 24 hours. Cells were lysed, and proteins separated by SDS-PAGE before transfer to nitrocellulose membranes. Membranes were incubated with antibodies against p27Kip1, p21 Cip1 orphospho-P70 S6 kinase T389.
(§1) Measurement of protein phosphorylation: A549 cells were incubated in serum-free medium without or with inhibitors for 1 hour, as indicated, before incubation for 30 minutes with a mixture of LPS, 100 μg/ml (Sigma; St. Louis, Mo.) and IFN-γ, 100 U/ml (Roche; Nutley, N.J.). PASM cells were incubated in serum-free medium without or with inhibitors for 24 h as indicated, before incubation for 30 min with 10% FBS. A549 or PASM cells were washed once with cold PBS and incubated for 15 minutes on ice ih lysis buffer (20 mM Tris pH 8.0, 1% Nonidet P-40, 1 mM EDTA, 5 mM benzamidine, aprotinin, 10 μg/ml, leupeptin, 10 μg/ml, trypsin soybean inhibitor, 1 mM PMSF, 50 mM sodium fluoride, 100 μM sodium orthovanadate, and 1: 100 Sigma phosphatase inhibitor set I containing cantharidin, microcystin LR and bromotetramizole). After freezing and thawing, lysates were centrifuged for 30 min at 16,000×g before protein measurement and storage at −80° C. Equal amounts of total protein were separated by SDS-PAGE, and transferred to a nitrocellulose membrane, before immunoblotting with primary antibodies as indicated. Membranes were treated with anti-rabbit IgG or anti-mouse IgG antibodies (Promega; Madison, Wis.) linked to horseradish peroxidase, developed using an enhanced chemiluminescence detection kit (SuperSignal West Pico, Pierce; Rockford, Ill.), and exposed to X-ray film, which was scanned using an Epson Expression 636 scanner. Integrated band densities were quantified using Scion Image beta 3b software.

[5] = test system: mTOR; test: Western blot of phospho-mTOR S2481 in PASM cells; assay type: cell-based, human
Method: HPASM cells were purchased from Clonetics and passaged according to the manufacturer's instructions. Cells were plated in 100 mm dishes, and allowed to grow to near confluence before serum starvation for 24 hours. Inhibitors were added to the media 1 hour before the addition of 10% FBS for 30 minutes. Cells were homogenized and the indicated proteins were detected by Western blot.
as §1, with “Equal amounts of total protein were separated by SDS-PAGE, and transferred to a nitrocellulose membrane, before immunoblotting with primary antibodies as indicated. Membranes were treated with anti-rabbit IgG or anti-mouse IgG antibodies (Promega; Madison, Wis.) linked to horseradish peroxidase, developed using an enhanced chemiluminescence detection kit (SuperSignal West Pico, Pierce; Rockford, Ill.), and exposed to X-ray film, which was scanned using an Epson Expression 636 scanner.” left out

IC50 ([4]; Homo sapiens, A549 cells, stimulated, densitometric analysis of pS6K phosphoblots, read-out: IC50 for inhibition of S6K phosphorylation): ~10 µM
SMILES: O=c1cc(N2CCNCC2)oc2c(-c3ccccc3)cccc12 [LY303511, 2-(4-piperazinyl)-8-phenyl-4H-1-benzopyran-4-one]
autophosphorylation of mTOR (S2481) [1]: inhibits autophosphorylation of mTOR in a concentration-dependent fashion | whole cell KI-67 levels [2]: significant decrease in whole cell KI-67 levels | degree of growth inhibition versus duration of treatment ([3]; 10 mg/kg daily for 5, 10 or 20 days): direct proportional to the duration of treatment | tumor growth inhibition, 20 day course versus ten day course ([3]; 10 mg/kg daily, FIG. 6C): as effective at inhibiting tumor growth as a ten day course | PC-3 tumor growth ([3]; 10 mg/kg intraperitoneally daily): inhibited the growth of prostate adenocarcinoma cells | tumor burden ([3]; LY303511 10 mg/kg daily, Doxorubicin 10 mg/kg once on Day 1): decrease tumor burden | phosphorylation of P70 S6 kinase at T389 ([4]; A549 cells in serum-containing media, 100 mcM LY303511 or rapamycin 200 ng/ml, 12 and 24 hours): blocked phosphorylation of P70 S6 kinase at T389 | lowest concentration inhibiting LPS/IFNγ-stimulated mTOR activity and mTOR-dependent phosphorylation of S6K ([4]; A549 cells, LPS/IFNγ-stimulated): 1 µM | phosphorylation of P70 S6 kinase (pS6K T389) ([4]; A549 cells, 100 mcM LY303511, rapamycin 200 ng/ml or wortmannin for 1 hour before LPS/IFN-γ, Western blot): blocks phosphorylation of P70 S6 kinase | serum-stimulated phosphorylation of mTOR at S2481 [5]: inhibited serum-stimulated phosphorylation of mTOR at S2481
